In US20240257668A1, “3D ARTIFICIAL SKIN MODEL AND METHOD FOR PRODUCING THE SAME” (Korea Advanced Institute of Science and Technology, priority 2023, published 2024):

Legend:
[1] = test system: stromal layer of the basement membrane+stromal layer artificial skin model; assay: Inhibition of tissue contraction of basement membrane+stromal layer artificial skin model by blebbistatin; format: cell-based
Description: Additionally, the basement membrane+stromal layer model without epithelial cells (Example 1-4) was produced and incubated for 24 hours under conditions of 37° C. and 5% CO2.
After incubation, each sample was imaged with a confocal fluorescence microscope at a wavelength of 488 nm, and the images were synthesized into two-dimensional images by max intensity projection using the ImageJ imaging program. […] However, it could be seen that, in the sample in which tissue contraction had already occurred, tissue contraction was maintained even after subsequent treatment with blebbistatin.

[2] = test system: stromal cells (fibroblasts) in the stromal layer; assay: Tissue contraction of basement membrane+stromal layer artificial skin model incubated with TGF-β2; format: cell-based; details: 10 ng/ml TGF-β2 added to DMEM + 10% FBS + 1% P/S; 96 hours, 37° C., 5% CO2; model without epithelial cells (FIGS. 5 and 6)
Description: In order to form wavy ridges in the stromal layer corresponding to the dermal layer of normal skin tissue, tissue contraction is required at the stromal layer boundary that is in contact with the basement membrane. In order to confirm whether the artificial skin model of the present disclosure can mimic this function, a basement membrane+stromal layer model without epithelial cells (Example 1-4) was produced, incubated under conditions of 37° C. and 5% CO2 for 96 hours. Incubation was performed using DMEM containing 10% FBS (fetal bovine serum) and 1% P/S (penicillin/streptomycin), and 10 ng/ml of TGF-β2 (transforming growth factor-beta 2) was additionally added to the test group. FIGS. 5 and 6, respectively, show the results of imaging the incubated model and the results of quantifying the image size relative to the control strain (0) based on 6 mm. The physical property was measured with Anton Paar MCR 92. […] This is believed to be because TGF-β2 increased contraction by activating stromal cells (fibroblasts) in the stromal layer. Therefore, in the following study, a medium supplemented with 10 ng/ml of TGF-β2 was used.

Row | Molecule | tissue contraction at the stromal layer boundary ([1]; 10 μM blebbistatin in control medium (with 10 ng/ml TGF-β2) from the beginning, 24 hours (group Bleb; FIG. 7)) | tissue contraction at the stromal layer boundary ([1]; 12 hours control medium, then 12 hours with 10 μM blebbistatin, tissue contraction already occurred (group Bleb after 12 hours; FIG. 7)) | tissue contraction at the boundary of the stromal layer [2]
1 | Cc1ccc2c(c1)C(=O)C1(O)CCN(c3ccccc3)C1=N2 (stereo not drawn) [blebbistatin] | inhibited | maintained | 
2 | transforming growth factor-beta 2 (protein, UniProt P61812 303-414, looked up) Transforming growth factor …: ALDAAYCFRNVQDNCCLRPLYIDFKRDLGWKWIHEPKGYNANFCAGACPYLWSSDTQHSRVLSLYNTINPEASASPCCVSQDLEPLTILYYIGKTPKIEQLSNMIVKSCKCS |  |  | well induced
